Values quoted from earlier work, collected in US8167920B2, “Intranasal delivery of compounds that reduce intrancranial pressure” (Codman & Shurtleff, Inc., priority 2006, dated 2012).

Experiments:
[1] = tested on: mesenteries (lymphatic pump); details: 15 minutes superfusion of 30 uM into the mesenteries
[2] = tested on: rat mesenteric lymphatics

SMILES	increase in lymphatic pump flow index [1]	inhibition of the active lymph pump [2]
COC(=O)[C@@H](N)CCCNC(=N)N[N+](=O)[O-] [L-NAME]	~40%	
OO [hydrogen peroxide]		intense inhibition
